# Assay results: paper PMC2594009 (Structure (London, England : 1993), 2008)
# “Also recorded” adds a separate entry of the source.
# Legend:
# M2 = conditions: cited from earlier work
# WT AM2 = format: cell-based, influenza A virus; conditions: pH 5.5
structure (smiles),measurement,setting,value
NC12CC3CC(CC(C3)C1)C2 [amantadine],Hill coefficient,M2,1.0
same,reversibility of inhibition after removal of the drug,WT AM2,did not reverse; also recorded: not reversible
